What was measured:
STZ mice = experiment: Hemorrhage and resuscitation protocol with Pseudomonas aeruginosa respiratory infection in STZ mice; assay type: in vivo; settings: in response to Atglistatin treatment
Excerpt: How preventing hyperglycemia can aid recovery and improve survival will be investigated. STZ mice will be subjected to hemorrhage protocol described above, but then resuscitated by fluid replacement to perform a survival surgery. The metabolic status will be followed for up to three days and indices of wound repair and susceptibility to postoperative pneumonia was monitored (FIG. 1). Control and T1DM mice, treated with Atglistatin to inhibit lipolysis or vehicle, will be subjected to the hemorrhage and resuscitation protocol. The ability of Atglistatin to improve survival under baseline conditions, as well as improve wound healing and recovery, will be determined. In addition, it will be determined whether attenuating postoperative hyperglycemia via Atglistatin administration improves survival from postoperative pseudomonal pneumonia and/or improve indices of pneumonia. […] Animals will be monitored for several hours after surgery taking hourly blood glucose measurements. […] Lung injury will be assessed by albumin ELISA in the bronchoalveolar lavage (BAL) fluid. Bacterial counts will be performed in the lung and blood, flow cytometric analysis of BAL cells will be done to assess for leukocyte infiltration and function, and BAL fluid as well as serum will be analyzed for inflammatory cytokine release. […]

[1] = system: white adipose tissue organ cultures; settings: cited from earlier work
pancreatic lipase = target: T1, pancreatic lipase (Homo sapiens, UniProt P16233); settings: cited from earlier work
T1 sequence (P16233 17-465): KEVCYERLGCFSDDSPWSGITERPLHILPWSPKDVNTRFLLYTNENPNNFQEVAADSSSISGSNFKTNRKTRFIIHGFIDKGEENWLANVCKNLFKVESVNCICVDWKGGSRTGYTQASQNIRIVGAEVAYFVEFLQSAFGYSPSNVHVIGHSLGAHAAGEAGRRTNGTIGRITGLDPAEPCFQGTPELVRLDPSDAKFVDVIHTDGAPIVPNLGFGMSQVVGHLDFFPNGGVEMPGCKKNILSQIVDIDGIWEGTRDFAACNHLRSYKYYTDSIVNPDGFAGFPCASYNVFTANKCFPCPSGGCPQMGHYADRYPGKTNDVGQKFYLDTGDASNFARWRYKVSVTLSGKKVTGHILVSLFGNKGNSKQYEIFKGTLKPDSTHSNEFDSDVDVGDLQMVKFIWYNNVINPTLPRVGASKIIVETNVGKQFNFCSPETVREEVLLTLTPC

PNPLA7 = PNPLA7 (Homo sapiens, UniProt Q6ZV29); settings: cited from earlier work
Chain of PNPLA7 (Q6ZV29 whole entry, species assumed): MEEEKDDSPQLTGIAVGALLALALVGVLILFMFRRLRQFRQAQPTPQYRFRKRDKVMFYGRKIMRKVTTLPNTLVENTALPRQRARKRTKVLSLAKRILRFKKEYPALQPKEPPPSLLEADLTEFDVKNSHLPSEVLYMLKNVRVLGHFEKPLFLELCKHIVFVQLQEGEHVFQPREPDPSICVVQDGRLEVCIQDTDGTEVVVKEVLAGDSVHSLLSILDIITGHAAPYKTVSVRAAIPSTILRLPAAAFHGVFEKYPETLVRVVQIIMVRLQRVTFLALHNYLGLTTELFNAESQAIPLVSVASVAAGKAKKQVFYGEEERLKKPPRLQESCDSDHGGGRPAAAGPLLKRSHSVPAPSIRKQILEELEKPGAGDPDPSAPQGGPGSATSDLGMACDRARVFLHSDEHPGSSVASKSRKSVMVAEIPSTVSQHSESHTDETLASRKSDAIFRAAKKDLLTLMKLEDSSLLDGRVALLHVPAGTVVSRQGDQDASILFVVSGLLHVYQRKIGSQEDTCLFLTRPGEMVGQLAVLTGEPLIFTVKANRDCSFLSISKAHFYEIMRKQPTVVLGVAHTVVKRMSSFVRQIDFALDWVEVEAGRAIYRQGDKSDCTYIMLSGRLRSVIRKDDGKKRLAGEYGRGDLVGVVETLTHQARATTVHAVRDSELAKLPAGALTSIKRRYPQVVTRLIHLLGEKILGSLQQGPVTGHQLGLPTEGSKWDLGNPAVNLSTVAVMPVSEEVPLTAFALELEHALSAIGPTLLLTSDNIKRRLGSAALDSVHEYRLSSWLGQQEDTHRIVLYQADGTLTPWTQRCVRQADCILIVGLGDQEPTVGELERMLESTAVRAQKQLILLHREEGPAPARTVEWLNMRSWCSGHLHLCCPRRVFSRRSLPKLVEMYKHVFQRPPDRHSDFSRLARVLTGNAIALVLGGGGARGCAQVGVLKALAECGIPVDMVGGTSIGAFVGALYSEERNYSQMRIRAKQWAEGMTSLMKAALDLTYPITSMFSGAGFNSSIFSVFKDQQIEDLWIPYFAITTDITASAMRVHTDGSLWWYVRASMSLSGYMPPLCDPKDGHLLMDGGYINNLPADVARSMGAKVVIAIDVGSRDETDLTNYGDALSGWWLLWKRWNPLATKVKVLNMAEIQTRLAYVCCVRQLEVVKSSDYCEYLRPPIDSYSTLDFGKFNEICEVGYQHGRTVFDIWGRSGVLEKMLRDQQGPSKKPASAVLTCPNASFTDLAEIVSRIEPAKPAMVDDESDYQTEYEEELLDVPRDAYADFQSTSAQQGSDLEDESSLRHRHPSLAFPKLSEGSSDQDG

monoglyceride lipase = target: T2, monoglyceride lipase (Homo sapiens, UniProt Q99685); settings: cited from earlier work
T2 sequence (Q99685 1-303): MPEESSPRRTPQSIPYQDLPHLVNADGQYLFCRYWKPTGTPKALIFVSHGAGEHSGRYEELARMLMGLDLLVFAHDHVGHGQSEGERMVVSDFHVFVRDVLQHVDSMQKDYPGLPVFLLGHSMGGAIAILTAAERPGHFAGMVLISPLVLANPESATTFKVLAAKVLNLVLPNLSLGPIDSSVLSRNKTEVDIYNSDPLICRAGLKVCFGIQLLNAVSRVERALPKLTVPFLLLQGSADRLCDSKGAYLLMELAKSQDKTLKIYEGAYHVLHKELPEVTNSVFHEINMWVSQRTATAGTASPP

## CN(C)C(=O)Nc1cccc(-c2ccc(N(C)C)cc2)c1 [Atglistatin, N′-[4′-(dimethylamino) [1,1′-biphenyl]-3-yl]-N,N-dimethyl-urea]
STZ mice
  immune cell function: restored to levels comparable with normoglycemic mice
[1]
  lipolysis by ATGL (fatty acid mobilization): blocks lipolysis
Pancreatic lipase
  inhibition of pancreatic lipase: does not inhibit
PNPLA7
  inhibition of PNPLA7: does not inhibit
Monoglyceride lipase
  inhibition of monoglyceride lipase: does not inhibit

Reference: patent US20180256623A1, “COMPOSITIONS AND METHOD FOR REGULATING ADIPOSE TISSUE LIPOLYSIS, INSULIN-RESISTANCE, AND HYPERGLYCEMIA” (University of Virginia Patent Foundation, priority 2015, published 2018)
